Reference: PMC2095803 (Nucleic Acids Research, 2007)

Key:
[1] = target: T1, Therminator II DNA polymerase (Thermococcus sp., UniProt Q56366, A485L/D141A/E143A/Y409V); test: PEP; assay type: biochemical, Thermococcus species 9ºN-7
T1 sequence (Q56366 1-775 D141A/E143A/Y409V/A485L): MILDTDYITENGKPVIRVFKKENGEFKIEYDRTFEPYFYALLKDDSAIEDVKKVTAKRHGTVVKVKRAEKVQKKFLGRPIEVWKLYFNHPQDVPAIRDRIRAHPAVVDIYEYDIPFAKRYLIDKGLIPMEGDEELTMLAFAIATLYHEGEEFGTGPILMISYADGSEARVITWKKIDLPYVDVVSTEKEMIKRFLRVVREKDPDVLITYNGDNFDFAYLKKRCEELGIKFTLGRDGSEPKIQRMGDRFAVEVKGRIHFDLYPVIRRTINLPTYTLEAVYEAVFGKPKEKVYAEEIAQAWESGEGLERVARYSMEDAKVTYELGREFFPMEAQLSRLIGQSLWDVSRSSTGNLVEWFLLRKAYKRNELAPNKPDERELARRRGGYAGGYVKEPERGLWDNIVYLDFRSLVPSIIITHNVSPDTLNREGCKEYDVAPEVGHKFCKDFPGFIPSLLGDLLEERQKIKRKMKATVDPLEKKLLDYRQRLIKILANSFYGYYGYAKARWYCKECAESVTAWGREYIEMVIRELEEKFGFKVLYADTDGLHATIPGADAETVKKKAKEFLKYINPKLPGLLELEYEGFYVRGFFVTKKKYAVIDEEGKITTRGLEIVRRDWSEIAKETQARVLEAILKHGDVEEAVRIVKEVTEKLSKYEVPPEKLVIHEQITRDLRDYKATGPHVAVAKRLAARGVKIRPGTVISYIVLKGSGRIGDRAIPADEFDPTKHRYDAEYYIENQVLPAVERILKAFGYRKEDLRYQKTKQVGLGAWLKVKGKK

[2] = target: T2, Vent(exo−) DNA polymerase (Thermococcus litoralis, UniProt P30317, D141A/E143A); test: PEP; assay type: biochemical
T2 sequence (P30317 with tags, fused parts or gaps D141A/E143A): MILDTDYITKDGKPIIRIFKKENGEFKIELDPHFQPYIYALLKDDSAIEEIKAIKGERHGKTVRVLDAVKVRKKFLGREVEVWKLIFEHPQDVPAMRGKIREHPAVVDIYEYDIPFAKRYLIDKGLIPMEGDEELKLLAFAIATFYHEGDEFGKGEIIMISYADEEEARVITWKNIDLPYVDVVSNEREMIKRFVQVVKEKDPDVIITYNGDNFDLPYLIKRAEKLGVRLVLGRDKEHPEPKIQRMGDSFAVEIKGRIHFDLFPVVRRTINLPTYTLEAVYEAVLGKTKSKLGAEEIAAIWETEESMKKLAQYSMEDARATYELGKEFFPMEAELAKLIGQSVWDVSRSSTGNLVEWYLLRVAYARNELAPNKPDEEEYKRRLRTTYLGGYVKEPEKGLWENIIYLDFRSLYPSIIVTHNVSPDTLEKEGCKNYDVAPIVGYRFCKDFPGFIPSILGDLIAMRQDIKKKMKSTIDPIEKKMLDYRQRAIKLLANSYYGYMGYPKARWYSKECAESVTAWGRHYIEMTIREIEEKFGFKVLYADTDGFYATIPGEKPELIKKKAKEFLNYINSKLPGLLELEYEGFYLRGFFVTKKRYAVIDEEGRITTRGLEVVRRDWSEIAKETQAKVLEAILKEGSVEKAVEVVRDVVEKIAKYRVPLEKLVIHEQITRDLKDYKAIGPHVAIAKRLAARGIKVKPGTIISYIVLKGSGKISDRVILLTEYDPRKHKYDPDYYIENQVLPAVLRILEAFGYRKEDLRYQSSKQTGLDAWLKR

[3] = target: T3, DeepVent(exo−) DNA polymerase (Pyrococcus sp. GB-D, UniProt Q51334, D141A/E143A); test: PEP; assay type: biochemical, Pyrococcus species GB-D
T3 sequence (Q51334 with tags, fused parts or gaps D141A/E143A): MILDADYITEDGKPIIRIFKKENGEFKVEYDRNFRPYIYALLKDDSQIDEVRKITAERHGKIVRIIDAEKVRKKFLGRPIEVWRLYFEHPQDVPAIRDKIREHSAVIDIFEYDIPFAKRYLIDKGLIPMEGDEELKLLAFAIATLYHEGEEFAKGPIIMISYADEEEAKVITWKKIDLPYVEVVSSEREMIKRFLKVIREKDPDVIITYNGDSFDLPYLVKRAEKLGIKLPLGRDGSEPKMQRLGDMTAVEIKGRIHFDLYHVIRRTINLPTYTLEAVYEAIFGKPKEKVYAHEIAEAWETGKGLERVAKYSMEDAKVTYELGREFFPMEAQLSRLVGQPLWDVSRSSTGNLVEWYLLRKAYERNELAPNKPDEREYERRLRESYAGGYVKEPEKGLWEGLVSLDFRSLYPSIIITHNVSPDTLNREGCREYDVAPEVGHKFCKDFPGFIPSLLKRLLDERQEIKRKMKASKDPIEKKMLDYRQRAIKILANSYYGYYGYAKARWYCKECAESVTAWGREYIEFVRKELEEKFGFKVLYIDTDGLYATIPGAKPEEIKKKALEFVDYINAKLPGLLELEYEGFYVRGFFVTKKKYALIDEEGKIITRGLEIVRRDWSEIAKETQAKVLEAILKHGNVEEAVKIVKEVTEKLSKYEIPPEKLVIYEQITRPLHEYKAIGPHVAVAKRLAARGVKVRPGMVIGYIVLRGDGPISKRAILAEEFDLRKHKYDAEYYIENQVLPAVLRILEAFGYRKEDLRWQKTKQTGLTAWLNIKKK

[4] = target: T4, Bst DNA polymerase (Geobacillus stearothermophilus, UniProt P52026); test: PEP mismatch; assay type: biochemical, Bacillus stearothermophilus
T4 sequence (P52026 289-876 limits assumed): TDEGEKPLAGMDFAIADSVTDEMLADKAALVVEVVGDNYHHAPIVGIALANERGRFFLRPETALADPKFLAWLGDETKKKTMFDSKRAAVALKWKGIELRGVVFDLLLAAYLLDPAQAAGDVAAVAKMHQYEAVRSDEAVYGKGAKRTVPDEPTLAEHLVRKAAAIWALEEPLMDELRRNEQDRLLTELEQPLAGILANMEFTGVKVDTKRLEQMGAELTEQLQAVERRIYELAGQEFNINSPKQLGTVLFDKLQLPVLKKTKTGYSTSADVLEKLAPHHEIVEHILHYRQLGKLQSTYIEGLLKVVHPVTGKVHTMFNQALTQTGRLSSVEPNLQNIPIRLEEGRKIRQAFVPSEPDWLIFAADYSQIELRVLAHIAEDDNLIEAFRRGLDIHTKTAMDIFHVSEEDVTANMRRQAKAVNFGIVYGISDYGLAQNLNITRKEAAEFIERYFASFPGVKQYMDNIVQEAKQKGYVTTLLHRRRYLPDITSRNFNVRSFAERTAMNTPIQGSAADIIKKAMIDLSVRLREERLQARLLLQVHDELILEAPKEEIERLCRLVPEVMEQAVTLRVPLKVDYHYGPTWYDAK

[5] = Therminator II, ratio of IC50 values

| Compound | Incorporation bias Cpd IIIc/dATP [1, 5] | Incorporation bias Cpd IIIc/ddATP [1, 5] | IC50 [2] | IC50 [3] | Discrimination ratio, cytosine–adenine mismatch over complement thymidine base ([4]; Bst, C template base (oligoTemplate)) | Nucleotide discrimination, IC50 of mismatched versus matched bases ([4]; Bst, mismatched template bases A, C or G) | IC50 [1] | Incorporation bias ddATP/dATP [1, 5] | Mismatch incorporation ([4]; final concentration of 500 μM (data not shown)) |
| --- | --- | --- | --- | --- | --- | --- | --- | --- | --- |
| O=[N+]([O-])c1ccccc1CNc1ncnc2c1ncn2[C@H]1C[C@H](O)[C@@H](COP(=O)(O)OP(=O)(O)OP(=O)(O)O)O1 [Compound IIIc, N^6-(2-Nitrobenzyl)-2’-deoxyadenosine-5’-triphosphate] | 1.8 | 0.034 | 0.0021 ± 0.0002 µM | 0.011 ± 0.0006 µM | 1100 fold | greater than two orders of magnitude | – | – | – |
| Nc1ncnc2c1ncn2[C@H]1CC[C@@H](COP(=O)(O)OP(=O)(O)OP(=O)(O)O)O1 [ddATP, 2′,3′-dideoxyadenosine triphosphate, reference compound] | – | – | 0.55 ± 0.04 µM | 3.4 ± 0.4 µM | – | – | 0.23 ± 0.03 µM | 52 | did not show mismatch incorporation |
